# Peptide text beside a SMILES is read from it.
# Assays:
# [1] = Autoclave stability/sterilization, mass spectrometry before and after autoclave; assay type: physicochemical; conditions: 121° C. for 25 min, high pressure saturated steam; N-terminus and C-terminus not protected
# Text: Sterilization is a very important step in the manufacturing process for all biomaterials, including the self-assembling peptide solutions.
# [2] = Dissolution in deionized water and visual appearance of peptide solution; assay type: physicochemical
# Procedure: ST14 and T14 were tested for dissolution in deionized water and appearance in solution at various concentrations.
# [3] = pH of peptide solutions in deionized water; assay type: physicochemical
# Procedure: The pH of the peptides in deionized water to provide a peptide solution were measured at various concentrations. […] ST14 and T14 were tested. The recorded pH values ranged from about 1.9 to about 2.5.
# [4] = Atomic Force Microscopy (AFM) morphological study of peptide nano structures; assay type: physicochemical; conditions: 100 μM peptide solution on mica, air-dried, tapping mode
# Procedure: Atomic Force Microscopy (AFM) images of ST14 and T14 peptides were investigated to visualize their nano structures. […] Each sample was left on the mica for about 30 seconds (s) and then rinsed with aliquots of 100 μl of Milli-Q (ultrapure) water to remove unattached peptides. The sample on the mica surface was then air-dried for AFM observation. AFM was performed with Asylum-1 MFP-3D AFM System (Asylum Research, Santa Barbara, Calif.) using a tapping mode. The images utilized an Olympus Si tip (AC240FS). The cantilever's free resonance frequency was 70 kHz.
# [5] = Congo Red assay of gel formation in PBS buffer (pH 7.4); assay type: physicochemical
# Procedure: A Congo Red assay was performed to determine gel formation of peptide solutions in a PBS buffer solution (pH 7.4). 100 μl of each gel at varying concentrations were plated on a glass slide. After 30 seconds, 500 μl of a 1% Congo Red solution in PBS buffer (pH 7.4) was added around and on top of each of the gel aliquots and then the excess Congo Red solution was wiped off prior to examination.
# ST14 and T14 were plated at varying concentrations of 0.5%, 1.0%, 1.5%, 2.0%, 2.5% and 5.0%. Visualization of gel formation determined the success or failure of gelation at each concentration.
# [6] = Rheological properties at various concentrations (stress sweep, rheometer); assay type: physicochemical; conditions: 37° C.; for Loss Modulus (G′) / Storage Modulus (G′): at 1 Pa of oscillation stress; for Loss Modulus (G′) / Storage Modulus (G′) / Max. Viscosity (max η′) / Yield Stress: 10 rad/s; for Max. Viscosity (max η′) / Yield Stress: stress sweep
# Procedure: The rheological properties of the ST14 were evaluated at various concentrations using a rheometer (AR500, TA Instruments) with 40 mm plates. Peptide solution (700 μL) was placed on the rheometer plate and excess solution was gently removed by Kimwipes; measurements were performed after 2 minutes of relaxation time at 37° C. The storage modulus, loss modulus, and viscosity (η′) were measured at 37° C. with the plates placed at a measuring geometry gap of 300 μm, and stress sweep tests were performed at 0.1 Pa˜1000 Pa of oscillation stress with angular frequency at 10 rad/s.
# [7] = Effect of DMEM treatment on rheological properties (storage modulus); assay type: physicochemical; conditions: 1% peptide; DMEM (pH 7.4) for 2 minutes; 1 Pa, 10 rad/s; 37° C.
# Procedure: The effects of Dulbecco's modified Eagle's medium (DMEM) (pH 7.4) on the rheological properties of ST14 were evaluated on a rheometer (AR500, TA Instruments) with 40 mm plates. DMEM is a cell culture medium that contains 6.4 g/L of NaCl, 3.4 g/L NaHCO3 (sodium bicarbonate), minor amounts of other salts, various amino acids, and 4.5 g/L of glucose. The pH of DMEM is 7.2±0.2 and the osmolality is 335±30 mOsm/Kg H2O; both measurements are close to human physiological fluids such as blood. Peptide solutions (1%) were kept in 4° C. for at least 48 hours before testing. To perform the experiment, 1 mL of peptide solution was gently pipetted and placed on the plate of the rheometer. 2 mL of DMEM solution was gently added around the peptide solution. The peptide solution was treated with DMEM for two minutes, then the media was removed, and the plates were placed at a measuring geometry gap at around 450 μm. Measurements were performed at 37° C. after 2 min of relaxation time. Frequency tests were performed from 1 rad/s to 100 rad/s at 1 Pa of oscillation stress.
# The rheological properties of ST14 (1%) were compared before and after DMEM treatment for 2 minutes in FIG. 14. […]
# [8] = system: C57 BL/6 Mouse Mesenchymal Stem Cells (mMSCs); experiment: Cell viability (cytotoxicity) assay in hydrogel drop cultures; assay type: cell-based; conditions: 5 million cells/ml, 10% sucrose, peptide concentration over 0.75% (tested 0.50% to 1.5%)
# Procedure: A cell viability (cytotoxicity) assay was performed to measure the ability of ST14 o support the viability of C57 BL/6 Mouse Mesenchymal Stem Cells (mMSCs)—a frequently-used cell line in hydrogel tissue culture systems. The hydrogel was prepared at a concentration of 2.5% and then diluted to concentrations of 1.5%, 1.25%, 1.0%, 0.75%, and 0.50% with sucrose, so that the final concentration of sucrose was 10%. Cells were washed and re-suspended in 10% sucrose to a final concentration of 5 million cells/ml. Cells were centrifuged and the supernatant was removed. The cells were re-suspended in each of the concentrations of hydrogels in 10% sucrose. The protocol was then followed for plating drop cultures and subsequent isolation as described in the PuraMatrix® Guidelines for Use (BD/Corning website).
# [9] = concentration 0.5% in deionized water
# [10] = concentration 1.0% in deionized water
# [11] = concentration 1.5% in deionized water
# [12] = concentration 2.0% in deionized water
# [13] = concentration 2.5% in deionized water
structure (smiles),measurement,setting,value
CC(O)C(N)C(=O)NC(C(=O)NC(C(=O)NC(C(=O)NC(C(=O)NC(C(=O)NC(C(=O)NC(C(=O)NC(C(=O)NC(C(=O)NC(C(=O)NC(C(=O)NC(C(=O)NC(C(=O)O)C(C)O)C(C)O)C(C)O)C(C)O)C(C)O)C(C)O)C(C)O)C(C)O)C(C)O)C(C)O)C(C)O)C(C)O)C(C)O (stereo not drawn) [Peptide T14],degradation during autoclave treatment (mass spec),[1],did not degrade
same,appearance of solution in deionized water,[2]; 1 percent w/v to 5 percent w/v,translucent
same,thickness of solution in deionized water,[2]; 5 percent w/v,formed a thick solution
same,pH,[3]; [9],2.5
same,pH,[3]; [10],2.3
same,pH,[3]; [11],2.2
same,pH,[3]; [12],2.1
same,pH,[3]; [13],2.0
same,AFM morphology (nano structure),[4],Aggregates have been detected
same,gel formation (Congo Red),[5]; below 1%,did not form a gel
CC(O)C(NC(=O)C(CO)NC(=O)C(NC(=O)C(CO)NC(=O)C(NC(=O)C(CO)NC(=O)C(NC(=O)C(CO)NC(=O)C(NC(=O)C(CO)NC(=O)C(NC(=O)C(CO)NC(=O)C(NC(=O)C(N)CO)C(C)O)C(C)O)C(C)O)C(C)O)C(C)O)C(C)O)C(=O)O (stereo not drawn) [ST14] (H-STSTSTSTSTSTST-OH; configuration not given here),degradation during autoclave treatment (mass spec),[1],did not degrade
same,appearance of solution in deionized water,[2]; 1 percent w/v to 5 percent w/v,translucent
same,thickness of solution in deionized water,[2]; 1 percent w/v to 5 percent w/v,formed thick solutions
same,Loss Modulus (G′),[6]; Concentration 1,11.4 Pa
same,Storage Modulus (G′),[6]; Concentration 1,67 Pa
same,Max. Viscosity (max η′),[6]; Concentration 1,1.2 Pa-s
same,Yield Stress,[6]; Concentration 1,5.0 Pa
same,Loss Modulus (G′),[6]; Concentration 1.5,9.8 Pa
same,Storage Modulus (G′),[6]; Concentration 1.5,94 Pa
same,Max. Viscosity (max η′),[6]; Concentration 1.5,1.5 Pa-s
same,Yield Stress,[6]; Concentration 1.5,7.9 Pa
same,Loss Modulus (G′),[6]; Concentration 2,17.3 Pa
same,Storage Modulus (G′),[6]; Concentration 2,136 Pa
same,Max. Viscosity (max η′),[6]; Concentration 2,2.0 Pa-s
same,Yield Stress,[6]; Concentration 2,10.0 Pa
same,Loss Modulus (G′),[6]; Concentration 2.5,17.1 Pa
same,Storage Modulus (G′),[6]; Concentration 2.5,167 Pa
same,Max. Viscosity (max η′),[6]; Concentration 2.5,2.2 Pa-s
same,Yield Stress,[6]; Concentration 2.5,15.9 Pa
same,"storage modulus, yield stress, and max. viscosity versus concentration",[6]; concentrations 1 to 2.5,increased with increasing concentration
same,pH,[3]; [9],2.5
same,pH,[3]; [10],2.2
same,pH,[3]; [11],2.1
same,pH,[3]; [12],2.0
same,pH,[3]; [13],1.9
same,AFM morphology (nano structure),[4],forms self-assembled nanofibers
same,gel formation (Congo Red),[5]; 0.5%,did not form a gel
same,fold increase of storage moduli after DMEM treatment,[7],6.9 fold
same,cell viability,[8],significantly decreased

# — patent US10961274B2, “Self-assembling peptides comprising non-ionic polar amino acids for anti-adhesion” (3-D Matrix, Ltd., priority 2015, dated 2021)
